The compounds below were run against T1, Ba/F3 cell EGFR Exon20 ins NPH (Homo sapiens, UniProt P00533, INS773NPH) (assay: Ba/F3 cell proliferation suppression, EGFR Exon20 ins NPH). Settings: GI50 class; Ba/F3 cell line with NPH inserted at Exon20 of EGFR; 72 hours.
T1 construct: expressed in transfected cells; host or cells: Ba/F3
Format: cell-based
How it was run: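 72 h compound exposure, 0.3 nM–50 um (12 points, 3:1 dilution in DMSO); viability by CellTiter-Glo luminescence. Ba/F3 medium: RPMI-1640, 10% FBS, 5 ng/ml IL-3, 1 ug/ml puromycin for transduced cells. GI50 vs control, n=3.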

`C=CC(=O)Nc1cc(Nc2cc(N3OCC[C@@H]3c3ccc(Cl)cc3F)ncn2)c(OC)cc1N1CC[C@@H](N2CCOCC2)C1` [compound 406, N-(5-((6-((R)-3-(4-chloro-2-fluorophenyl)isoxazolidine-2-yl)pyrimidine-4-yl)amino)-4-methoxy-2-((R)-3-morpholinopyrolidine-1-yl)phenyl)acrylamide] was tested. Which “Ba/F3 (NPH) Activity” value did it give?
The value was “A (GI50 < 50 nM)”.

How did the “Ba/F3 (NPH) Activity” value turn out when `C=CCN1CCN(C2CCN(c3cc(OC)c(Nc4cc(N5OCC[C@@H]5c5cccc(OC)c5)ncn4)cc3NC(=O)C=C)CC2)CC1` [Example 215, N-(2-(4-(4-allylpiperazine-1-yl)piperidine-1-yl)-4-methoxy-5-((6-((R)-3-(3-methoxyphenyl)isoxazolidine-2-yl)pyrimidine-4-yl)amino)phenyl) acrylamide] was run?
Its value is “C (500 nM ≤ GI50 < 5000 nM)”.

Which “Ba/F3 (NPH) Activity” value does the source give for `C=CC(=O)Nc1cc(Nc2cc(N3OCC[C@@H]3c3cccc(F)c3F)ncn2)c(OC)cc1N1CCN(C)[C@@H](C)C1` [compound 883, N-(5-((6-((R)-3-(2,3-difluorophenyl)isoxazolidine-2-yl)pyrimidine-4-yl)amino)-2-((S)-3,4-dimethylpiperazine-1-yl)-4-methoxyphenyl) acrylamide] here?
The value was “A (GI50 < 50 nM)”.

Which “Ba/F3 (NPH) Activity” value does the source give for `C=CC(=O)Nc1cc(Nc2cc(N3OCC[C@@H]3c3cccc4ccccc34)ncn2)c(OC)cc1N1CCC(N2CCN(C3CC3)CC2)CC1` [Example 146, N-(2-(4-(4-cyclopropylpiperazine-1-yl)piperidine-1-yl)-4-methoxy-5-((6-((R)-3-(naphthalene-1-yl)isoxazolidine-2-yl)pyrimidine-4-yl)amino)phenyl)acrylamide] here?
The value was “B (50 nM ≤ GI50 < 500 nM)”.

How did the “Ba/F3 (NPH) Activity” value turn out when `C=CC(=O)Nc1cc(Nc2cc(N3OCC[C@@H]3c3cc(F)cc(F)c3)ncn2)c(OC)cc1N1CCC(N2CCCN(C3CC3)CC2)CC1` [compound 717, N-(2-(4-(4-cyclopropyl-1,4-diazepane-1-yl)piperidine-1-yl)-5-((6-((R)-3-(3,5-difluorophenyl)isoxazolidine-2-yl)pyrimidine-4-yl)amino)-4-methoxyphenyl) acrylamide] was run?
The value was “A (GI50 < 50 nM)”.

`C=CC(=O)Nc1cc(Nc2cc(N3OCC[C@H]3Cc3cccnc3)ncn2)c(OC)cc1N1CCC(N2C[C@@H]3C[C@H]2CO3)CC1` [compound 989, N-(2-(4-((1S,4S)-2-oxa-5-azabicyclo [2.2.1]heptane-5-yl)piperidine-1-yl)-4-methoxy-5-((6-((R)-3-(pyridine-3-ylmethyl)isoxazolidine-2-yl)pyrimidine-4-yl)amino)phenyl)acrylamide] was tested. Which “Ba/F3 (NPH) Activity” value did it give?
Its value is “B (50 nM ≤ GI50 < 500 nM)”.

Which “Ba/F3 (NPH) Activity” value does the source give for `C=CC(=O)Nc1cc(Nc2cc(N3OCC[C@@H]3c3cc(F)cc(F)c3)ncn2)c(OC)cc1N1CCN(C)C[C@H]1C` [compound 918, N-(5-((6-((R)-3-(3,5-difluorophenyl)isoxazolidine-2-yl)pyrimidine-4-yl)amino)-2-((R)-2,4-dimethylpiperazine-1-yl)-4-methoxyphenyl) acrylamide] here?
The value was “A (GI50 < 50 nM)”.

`C=CC(=O)Nc1cc(Nc2cc(N3OCC[C@@H]3c3cccc(F)c3Cl)ncn2)c(OC)cc1N1CCC(N2CCN(C3CC3)C[C@@H]2C)CC1` [Example 144, N-(5-((6-((R)-3-(2-chloro-3-fluorophenyl)isoxazolidine-2-yl)pyrimidine-4-yl)amino)-2-(4-((S)-4-cyclopropyl-2-methylpiperazine-1-yl)piperidine-1-yl)-4-methoxyphenyl) acrylamide] was tested. Which “Ba/F3 (NPH) Activity” value did it give?
Its value is “A (GI50 < 50 nM)”.

How did the “Ba/F3 (NPH) Activity” value turn out when `C=CC(=O)Nc1cc(Nc2cc(N3OCC[C@@H]3c3cccc(OC)c3)ncn2)c(OC)cc1N1CCC(N2C[C@H]3C[C@@H]2CO3)CC1` [compound 726, N-(2-(4-((1R,4R)-2-oxa-5-azabicyclo [2.2.1]heptane-5-yl)piperidine-1-yl)-4-methoxy-5-((6-((R)-3-(3-methoxyphenyl)isoxazolidine-2-yl)pyrimidine-4-yl)amino)phenyl)acrylamide] was run?
Its value is “A (GI50 < 50 nM)”.

Reference: patent publication US12157730B2, “Heteroaryl derivative, method for producing same, and pharmaceutical composition comprising same as effective component” (VORONOI INC., priority 2019, dated 2024)
